The test relates to Dengue-2 (Strain New Guinea C). In words: Viral yield assay against Dengue-2 in Vero cells. The format is cell-based, Dengue virus. The following applies: Dengue virus, read-out: Activity (EC50 in μM) DENV-2. In short, it runs like this: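 Progeny virus from compound-treated Vero monolayers infected at an MOI of 0.1 is collected after 48 h at 37° C and titered on Vero cells. DMSO serves as control.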

The mark [1] stands for this setting: DENV2, viral yield assay, Vero cells, MOI 0.1, 48 hours post infection.

Read-outs that look alike come from different tables or passages of the source.

One may read the EC50 as the concentration giving half of the maximal effect. `CCOc1cccc(NC(=O)c2sc3nc(-c4cccc(OC)c4)ccc3c2N)c1` [Compound 552, 3-amino-N-(3-ethoxyphenyl)-6-(3-methoxyphenyl)thieno[2,3-b]pyridine-2-carboxamide]: the EC50 under setting [1] is below 5 µM. Regarding `COc1cccc(-c2ccc3c(N)c(C(=O)Nc4ccc(C)cc4)sc3n2)c1` [Compound 553, 3-amino-6-(3-methoxyphenyl)-N-(p-tolyl)thieno[2,3-b]pyridine-2-carboxamide], under setting [1], the EC50 is below 5 µM. Same read-out and setting: in the case of `COc1cccc(-c2ccc3c(N)c(C(=O)Nc4ccc(C)cc4C)sc3n2)c1` [Compound 554, 3-amino-N-(2,4-dimethylphenyl)-6-(3-methoxyphenyl)thieno[2,3-b]pyridine-2-carboxamide] it was below 5 µM; in that of `COc1cccc(-c2ccc3c(N)c(C(=O)Nc4ccc(Br)cc4F)sc3n2)c1` [Compound 556, 3-amino-N-(4-bromo-2-fluoro-phenyl)-6-(3-methoxyphenyl)thieno[2,3-b]pyridine-2-carboxamide], below 5 µM; in that of `COc1cccc(-c2ccc3c(N)c(C(=O)Nc4ccc(F)cc4Cl)sc3n2)c1` [Compound 557, 3-amino-N-(2-chloro-4-fluoro-phenyl)-6-(3-methoxyphenyl)thieno[2,3-b] pyridine-2-carboxamide], below 5 µM.

For `COc1cccc(-c2ccc3c(N)c(C(=O)Nc4cc(C(F)(F)F)ccc4OC)sc3n2)c1` [Compound 558, 3-amino-6-(3-methoxyphenyl)-N-[2-methoxy-5-(trifluoromethyl)phenyl] thieno[2,3-b]pyridine-2-carboxamide], the EC50 under setting [1] was below 5 µM.

`COc1cccc(-c2ccc3c(N)c(C(=O)Nc4cc(C(F)(F)F)ccc4Cl)sc3n2)c1` [Compound 560, 3-amino-N-[2-chloro-5-(trifluoromethyl)phenyl]-6-(3-methoxyphenyl)thieno [2,3-b]pyridine-2-carboxamide]: the EC50 under setting [1] is below 5 µM. Same read-out and setting: the figure for `COc1cccc(-c2ccc3c(N)c(C(=O)Nc4cccc(C)c4C)sc3n2)c1` [Compound 562, 3-amino-N-(2,3-dimethylphenyl)-6-(3-methoxyphenyl)thieno[2,3-b]pyridine-2-carboxamide] is below 5 µM. With `COc1cccc(-c2ccc3c(N)c(C(=O)Nc4cccc(Cl)c4Cl)sc3n2)c1` [Compound 563, 3-amino-N-(2,3-dichlorophenyl)-6-(3-methoxypnenyl)thieno[2,3-b]pyridine-2-carboxamide], the EC50 under setting [1] is below 5 µM.

Turning to `COc1cccc(-c2ccc3c(N)c(C(=O)Nc4cc(Cl)cc(Cl)c4)sc3n2)c1` [Compound 564, 3-amino-N-(3,5-dichlorophenyl)-6-(3-methoxyphenyl)thieno[2,3-b]pyridine-2-carboxamide], under setting [1], the EC50 was below 5 µM.

Take `COc1cccc(-c2ccc3c(N)c(C(=O)Nc4cc(F)ccc4C)sc3n2)c1` [Compound 565, 3-amino-N-(5-fluoro-2-methyl-phenyl)-6-(3-methoxyphenyl)thieno[2,3-b] pyridine-2-carboxamide]: under setting [1], the EC50 is below 5 µM. On to `CCSc1nc2ccc(NC(=O)c3sc4nc(-c5cccc(OC)c5)ccc4c3N)cc2s1` [Compound 567, 3-amino-N-(2-ethylsulfanyl-1,3-benzo-thiazol-6-yl)-6-(3-methoxphenyl)thieno [2,3-b]pyridine-2-carboxamide], for which, under setting [1], the concentration for a half-maximal effect (EC50) is below 5 µM. Still for that read-out and setting: in the case of `CCCSc1nc2ccc(NC(=O)c3sc4nc(-c5cccc(OC)c5)ccc4c3N)cc2s1` [Compound 568, 3-amino-6-(3-methoxyphenyl)-N-(2-propylsulfanyl-1,3-benzothiazol-6-yl) thieno[2,3-b]pyridine-2-carboxamide] it was below 5 µM; in that of `COc1ccc(-c2ccc3c(N)c(C(=O)Nc4cccc(Cl)c4C)sc3n2)cc1OC` [Compound 573, 3-amino-N-(3-chloro-2-methyl-phenyl)-6-(3,4-dimethoxyphenyl)thieno[2,3-b] pyridine-2-carboxamide], below 5 µM; in that of `COc1ccc(-c2ccc3c(N)c(C(=O)Nc4ccc(Br)cc4C)sc3n2)cc1OC` [Compound 578, 3-amino-N-(4-bromo-2-methyl-phenyl)-6-(3,4-dimethoxyphenyl)thieno[2,3-b] pyridine-2-carboxamide], below 5 µM. On the same count and under the same terms, the figure for `COc1ccc(-c2ccc3c(N)c(C(=O)Nc4ccc(Br)c(C)c4)sc3n2)cc1OC` [Compound 579, 3-amino-N-(4-bromo-3-methyl-phenyl)-6-(3,4-dimethoxyphenyl)thieno[2,3-b] pyridine-2-carboxamide] is below 5 µM.

On to `COc1ccc(-c2ccc3c(N)c(C(=O)Nc4ccc5c(c4)OCO5)sc3n2)cc1OC` [Compound 580, 3-amino-N-(1,3-benzodioxol-5-yl)-6-(3,4-dimethoxyphenyl)thieno[2,3-b] pyridine-2-carboxamide], for which, where the note is “DENV2, Vero, 48 h”, the concentration giving a half-maximal response (EC50) was below 5 µM. On to `COc1ccc(-c2ccc3c(N)c(C(=O)Nc4ccccc4C)sc3n2)cc1OC` [Compound 581, 3-amino-6-(3,4-dimethoxyphenyl)-N-(o-tolyl)thieno[2,3-b]pyridine-2-carboxamide], for which the EC50 under setting [1] was below 5 µM.

Regarding `CCOc1cccc(NC(=O)c2sc3nc(-c4ccc(OC)c(OC)c4)ccc3c2N)c1` [Compound 582, 3-amino-6-(3,4-dimethoxyphenyl)-N-(3-ethoxyphenyl)thieno[2,3-b]pyridine-2-carboxamide], the EC50 (DENV2, Vero, 48 h) is below 5 µM. In the case of `COc1ccc(-c2ccc3c(N)c(C(=O)Nc4ccc(Cl)c(C(F)(F)F)c4)sc3n2)cc1OC` [Compound 585, 3-amino-N-[4-chloro-3-(trifluoromethyl)phenyl]-6-(3,4-dimethoxyphenyl)thieno [2,3-b]pyridine-2-carboxamide], the EC50 under setting [1] is below 5 µM.

In the case of `Cc1c(Cl)cccc1NC(=O)c1sc2nc(-c3ccc4c(c3)OCO4)ccc2c1N` [Compound 586, 3-amino-6-(1,3-benzodioxol-5-yl)-N-(3-chloro-2-methyl-phenyl)thieno[2,3-b] pyridine-2-carboxamide], the EC50 under setting [1] was below 5 µM. Same read-out and setting: in the case of `Nc1c(C(=O)Nc2cc(Cl)ccc2Cl)sc2nc(-c3ccc4c(c3)OCO4)ccc12` [Compound 587, 3-amino-6-(1,3-benzodioxol-5-yl)-N-(2,5-dichlorophenyl)thieno[2,3-b]pyridine-2-carboxamide] it was below 5 µM; in that of `Cc1ccc(C)c(NC(=O)c2sc3nc(-c4ccc5c(c4)OCO5)ccc3c2N)c1` [Compound 588, 3-amino-6-(1,3-benzodioxol-5-yl)-N-(2,5-dimethylphenyl)thieno[2,3-b]pyridine-2-carboxamide], below 5 µM; in that of `COc1ccc(Cl)c(NC(=O)c2sc3nc(-c4ccc5c(c4)OCO5)ccc3c2N)c1` [Compound 589, 3-amino-6-(1,3-benzodioxol-5-yl)-N-(2-chloro-5-methoxy-phenyl)thieno[2,3-b] pyridine-2-carboxamide], below 5 µM. Consider `Cc1cc(NC(=O)c2sc3nc(-c4ccc5c(c4)OCO5)ccc3c2N)ccc1Br` [Compound 590, 3-amino-6-(1,3-benzodioxol-5-yl)-N-(4-bromo-3-methyl-phenyl)thieno[2,3-b] pyridine-2-carboxamide], for which, under setting [1], the EC50 is below 5 µM. On the same count and under the same terms, in the case of `CCc1cccc(NC(=O)c2sc3nc(-c4ccc5c(c4)OCO5)ccc3c2N)c1` [Compound 592, 3-amino-6-(1,3-benzodioxol-5-yl)-N-(3-ethylphenyl)thieno[2,3-b]pyridine-2-carboxamide] it was below 5 µM.

For the origin of these results see US20170121344A1 (Siga Technologies, Inc., priority 2009, published 2017).
